Several values for one entry are separate records, joined by “and”; a condition that tells them apart may be missing. Equal values may be shown once.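 Five concentrations, 48 hours, 96-well plates. GI50 = concentration required for 50% inhibition of growth. The concentration for full growth arrest is given as TGI.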
Key:
Test in all cases: DTP human tumour cell line panel, 48 h
[1] = system: MDA-MB-435
[2] = system: MDA-MB-231 breast
[3] = system: NCI-H522 lung
[4] = system: SNB-19 CNS
[5] = system: SF-539 CNS
[6] = system: OVCAR-3 ovarian
[7] = system: COLO 205 colon
[8] = system: SR leukemia
[9] = system: RPMI-8226 leukemia
[10] = system: UACC-62 melanoma

SMILES | GI50 [1] | TGI [1] | GI50 [2] | GI50 [3] | TGI [3] | GI50 [4] | TGI [4] | GI50 [5] | TGI [5] | GI50 [6] | TGI [6] | GI50 [7] | TGI [7] | GI50 [8] | GI50 [9] | TGI [9] | GI50 [10] | TGI [10] | TGI [2] | TGI [8]
COc1cc(OC)cc(C2C3=C(COC3=O)Nc3cc(OC)ccc32)c1 (centres undefined) | < 0.01 µM | < 0.01 µM | < 0.0128 µM | < 0.01 µM | 0.836 µM | 0.0178 µM | > 100 µM | < 0.01 µM | 15.7 µM | < 0.01 µM | < 0.01 µM | < 0.01 µM | < 0.01 µM | < 0.01 µM | < 0.01 µM | > 43.9 µM | < 0.01 µM | > 81.2 µM | – | –
COc1ccccc1S(=O)(=O)Nc1ccc2c3c(cc(CCC(=O)NCCCCNc4cccc5c4C(=O)N(C4CCC(=O)NC4=O)C5=O)cc13)C(=O)N2C (centres undefined) | 0.726 µM | > 100 µM | 0.0351 µM | 4.22 µM | > 100 µM | 0.427 µM | > 100 µM | 0.978 µM | > 100 µM | 2.21 µM | > 100 µM | 0.459 µM | 8.08 µM | 0.248 µM | 0.625 µM | > 100 µM | 13.4 µM | > 100 µM | 0.295 µM | > 52.5 µM
O=C(O)/C(Cc1cn[nH]n1)=N\O | – | > 100 µM | – | – | > 100 µM | – | > 100 µM | – | > 100 µM | – | > 100 µM | – | > 100 µM | – | – | > 100 µM | – | > 100 µM | > 100 µM | > 100 µM
CSc1nc2nc3c(nc2c(=O)n1C)C(=O)c1ccccc1C3=O | 0.0218 µM | 0.0471 µM | 0.256 µM | 0.16 µM | 0.332 µM | 0.304 µM | 1.28 µM | 0.196 µM | 0.384 µM | 0.0378 µM | 0.21 µM | 0.173 µM | 0.357 µM | 0.332 µM | 0.255 µM | 1.02 µM | 0.0467 µM | 0.183 µM | 0.974 µM | > 100 µM
CC(=O)N1CCN(CCNC(=O)n2cc(-c3ccncc3)c(-c3cc(O)cc(Cl)c3)n2)CC1 | 2.7 µM | 15.7 µM | 11.7 µM | 14.9 µM | 34.1 µM | 21.4 µM | 78.6 µM | 5.73 µM | 21.1 µM | 17.3 µM | 46.5 µM | 6.26 µM | 20.9 µM | 4.78 µM | 4.69 µM | 23.4 µM | 2.95 µM | 16.2 µM | 26.7 µM | 22.5 µM
CC(C)OC(=S)Nc1ccc(Cl)c(/C=N/OC(C)(C)C)c1 | – | 32.3 µM | – | – | 30.8 µM | – | 44.2 µM | – | 31.7 µM | – | 33.6 µM | – | 32.3 µM | – | – | 51.3 µM | – | 30.9 µM | 31.5 µM | 39.3 µM
C=C1C(O)C2CC(C)(CO)C(=O)C2=C(CC(C)C)C12CC2 (centres undefined) | 75 µM | > 100 µM | > 100 µM | 68.4 µM | > 100 µM | > 100 µM | > 100 µM | 51.6 µM | > 100 µM | 36.5 µM | 92.4 µM | > 100 µM | > 100 µM | 40.8 µM | 29.1 µM | > 100 µM | 78.6 µM | > 100 µM | > 100 µM | > 100 µM
COC(=O)c1c(-c2cccs2)oc(-c2cccs2)c1C(=O)OC | 26 µM | 87 µM | 34 µM | 25.5 µM | 69.7 µM | > 100 µM | > 100 µM | 84.4 µM | > 100 µM | 30.4 µM | > 94.5 µM | 26.7 µM | > 86.3 µM | > 100 µM | 13.1 µM | 92.7 µM | 27.3 µM | > 100 µM | > 94.5 µM | > 100 µM
COc1cc(C2C3=C(COC3=O)N(CCO)c3cc4c(cc32)OCCO4)cc(OC)c1OC (centres undefined) | 0.103 µM | 0.256 µM | 0.185 µM | 0.0626 µM | 0.185 µM | 0.717 µM | > 50 µM | 0.147 µM | – | 0.135 µM | 0.315 µM | 0.15 µM | 0.409 µM | 0.166 µM | 0.149 µM | – | – | > 50 µM | 2.72 µM | –
COc1ccc(-c2nc(-c3nc4ccc(C)cc4[nH]3)cc3c2[nH]c2ccccc23)cc1 | 3.94 µM | > 100 µM | 6.88 µM | 4.39 µM | 42.1 µM | 7.28 µM | > 100 µM | 3.92 µM | > 100 µM | 3.59 µM | 12 µM | 2.83 µM | 8.21 µM | 2.68 µM | 1.85 µM | 5.31 µM | 3.34 µM | 23.1 µM | > 100 µM | 27.8 µM
CN(C)CCCn1c(=O)c2ccccc2c2cnc3[nH]ccc3c21 | 1.76 µM | 6.66 µM | 1.99 µM | 1.82 µM | 5.03 µM | 2.19 µM | 10.6 µM | 2.34 µM | 7.04 µM | 2.4 µM | 6.35 µM | 0.686 µM | 3.54 µM | 0.63 µM | 2.23 µM | 7.3 µM | 1.59 µM | 2.97 µM | 8.83 µM | 13.6 µM
COc1ccc(-c2cncn2-c2cc(OC)c(OC)c(OC)c2)cc1 | 0.0178 µM | 0.0567 µM | 0.465 µM | 0.019 µM | 0.283 µM | 0.349 µM | > 100 µM | 0.0671 µM | 0.46 µM | 0.0282 µM | 0.0641 µM | 0.103 µM | 9.7 µM | 2.09 µM | 0.451 µM | 3.29 µM | 0.124 µM | > 33.7 µM | 25.7 µM | 6.59 µM
COc1ccc(-c2cc3c(C)nc(N)nc3n(C3CCC(OCCO)CC3)c2=O)cn1 (centres undefined) | 0.0985 µM and 0.0842 µM | 0.941 µM and 0.564 µM | 0.0967 µM and 0.144 µM | 0.052 µM and 0.0337 µM | 0.8 µM and 0.386 µM | 0.318 µM and 0.28 µM | 2.84 µM and 3.43 µM | 0.131 µM and 0.126 µM | 0.552 µM and 0.461 µM | 0.0614 µM and 0.0395 µM | 0.486 µM and 0.427 µM | 0.0882 µM and 0.137 µM | 0.874 µM and 1.14 µM | 0.257 µM and 0.0805 µM | 0.157 µM and 0.0612 µM | > 3.74 µM and 3.27 µM | 0.02 µM and 0.046 µM | 0.165 µM and 0.365 µM | 0.792 µM and 1.13 µM | > 10 µM and 1.44 µM

— PubChem BioAssay (NCI)
